According to patent US20260285850A1, “SUBSTITUTED OXAZOLIDINONES AND IMIDAZOLINONES AS HERBICIDES” (FMC CORPORATION, priority 2023, published 2026):

Assays:
Format in all cases: in vivo
[1] = system: barnyardgrass (Echinochloa crus-galli); test: Test A preemergence soil spray, visual injury rating 0-100; details: 10 days, 0 = no effect, 100 = complete control
Summary of the method: (§1)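 Compound in a non-phytotoxic, surfactant-containing solvent is applied either as a directed soil spray before seedlings emerge or onto emerged plants 2-10 cm tall; pots hold a loam-sand blend. Plants grow 10 days under greenhouse conditions and are rated by eye against untreated controls (0 no effect, 100 complete control).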

[2] = system: blackgrass (Alopecurus myosuroides); test: as above; details: 10 days, 0 = no effect, 100 = complete control
Summary of the method: as §1

corn (Zea mays) [3] = test: as above; details: 10 days, 0 = no effect, 100 = complete control
Summary of the method: as §1

[4] = system: green foxtail (Setaria viridis); test: as above; details: 10 days, 0 = no effect, 100 = complete control
Summary of the method: as §1

kochia (Bassia scoparia) [5] = test: as above; details: 10 days, 0 = no effect, 100 = complete control
Summary of the method: as §1

[6] = system: oat, wild (wild oat, Avena fatua); test: as above; details: 10 days, 0 = no effect, 100 = complete control
Summary of the method: as §1

[7] = system: palmer (palmer amaranth, palmer pigweed, Amaranthus palmeri); test: as above; details: 10 days, 0 = no effect, 100 = complete control
Summary of the method: as §1

[8] = system: ryegrass, Italian (italian ryegrass, Lolium multiflorum); test: as above; details: 10 days, 0 = no effect, 100 = complete control
Summary of the method: as §1

soybean (Glycine max) [9] = test: as above; details: 10 days, 0 = no effect, 100 = complete control
Summary of the method: as §1

[10] = system: wheat (Triticum aestivum); test: as above; details: 10 days, 0 = no effect, 100 = complete control
Summary of the method: as §1

[11] = system: barnyardgrass (Echinochloa crus-galli); test: Test A postemergence application, visual injury rating 0-100; details: Postemergence, 10 days, 0 is no effect, 100 is complete control
Summary of the method: as §1

[12] = system: blackgrass (Alopecurus myosuroides); test: as above; details: Postemergence, 10 days, 0 is no effect, 100 is complete control
Summary of the method: as §1

corn (Zea mays) [13] = test: as above; details: Postemergence, 10 days, 0 is no effect, 100 is complete control
Summary of the method: as §1

[14] = system: galium (catchweed bedstraw, Galium aparine); test: as above; details: Postemergence, 10 days, 0 is no effect, 100 is complete control
Summary of the method: as §1

[15] = system: green foxtail (Setaria viridis); test: as above; details: Postemergence, 10 days, 0 is no effect, 100 is complete control
Summary of the method: as §1

[16] = system: horseweed (Erigeron canadensis); test: as above; details: Postemergence, 10 days, 0 is no effect, 100 is complete control
Summary of the method: as §1

kochia (Bassia scoparia) [17] = test: as above; details: Postemergence, 10 days, 0 is no effect, 100 is complete control
Summary of the method: as §1

[18] = system: oat, wild (wild oat, Avena fatua); test: as above; details: Postemergence, 10 days, 0 is no effect, 100 is complete control
Summary of the method: as §1

[19] = system: palmer (palmer amaranth, palmer pigweed, Amaranthus palmeri); test: as above; details: Postemergence, 10 days, 0 is no effect, 100 is complete control
Summary of the method: as §1

[20] = system: ragweed (common ragweed, Ambrosia artemisiifolia); test: as above; details: Postemergence, 10 days, 0 is no effect, 100 is complete control
Summary of the method: as §1

[21] = system: ryegrass, Italian (italian ryegrass, Lolium multiflorum); test: as above; details: Postemergence, 10 days, 0 is no effect, 100 is complete control
Summary of the method: as §1

soybean (Glycine max) [22] = test: as above; details: Postemergence, 10 days, 0 is no effect, 100 is complete control
Summary of the method: as §1

[23] = system: wheat (Triticum aestivum); test: as above; details: Postemergence, 10 days, 0 is no effect, 100 is complete control
Summary of the method: as §1

[24] = system: barnyardgrass (Echinochloa crusgalli); test: Test B flooded paddy test, visual plant response rating 0-100; details: 250 g ai/ha, Flood, applied to paddy water, evaluated after 13 days
Summary of the method: (§2)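 Greenhouse, 13 d. Seedlings at 2-leaf stage, pots flooded to 3 cm, compound delivered into floodwater, water level held constant. Evaluated visually relative to controls.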

[25] = system: ducksalad (Heteranthera limosa); test: as above; details: 250 g ai/ha, Flood, applied to paddy water, evaluated after 13 days
Summary of the method: as §2

rice (Oryza sativa) = test: as above; details: 250 g ai/ha, Flood, applied to paddy water, evaluated after 13 days
Summary of the method: as §2

[26] = system: sedge, umbrella (small-flower umbrella sedge, Cyperus difformis); test: as above; details: 250 g ai/ha, Flood, applied to paddy water, evaluated after 13 days
Summary of the method: as §2

**Q.** For `CC1(C(=O)NC2C=CC(C(=O)OCC#N)C2)CN(c2cc(F)cc(F)c2)C(=O)O1` (centres unmarked) [Compound 35], which “Barnyardgrass plant response rating (0 to 100 scale)” value (shortened to “Barnyardgrass plant response rating”) ([1]; 125 g ai/ha) is on record?
**A.** The value was 100.

**Q.** What about the “Barnyardgrass plant response rating” value ([1]; 500 g ai/ha) of the same molecule?
**A.** Its value is 100.

**Q.** What about the “Blackgrass plant response rating (0 to 100 scale)” value (“Blackgrass plant response rating” for short) ([2]; 125 g ai/ha) of the same molecule?
**A.** Its value is 70.

**Q.** What about the “Blackgrass plant response rating” value ([2]; 500 g ai/ha) of the same molecule?
**A.** Its value is 90.

**Q.** And the “Corn plant response rating (0 to 100 scale)” value (“Corn plant response rating” for short) (corn (Zea mays) [3]; 125 g ai/ha)?
**A.** The value was 90.

**Q.** What about the “Corn plant response rating” value (corn (Zea mays) [3]; 500 g ai/ha) of the same molecule?
**A.** Its value is 100.

**Q.** And the “Foxtail, Green plant response rating (0 to 100 scale)” value (shortened to “Foxtail, Green plant response rating”) ([4]; 125 g ai/ha)?
**A.** The value was 90.

**Q.** And the “Foxtail, Green plant response rating” value ([4]; 500 g ai/ha)?
**A.** The value was 100.

**Q.** What about the “Kochia plant response rating (0 to 100 scale)” value (from here on “Kochia plant response rating”) (kochia (Bassia scoparia) [5]; 125 g ai/ha) of the same molecule?
**A.** The value was 90.

**Q.** What about the “Kochia plant response rating” value (kochia (Bassia scoparia) [5]; 500 g ai/ha) of the same molecule?
**A.** The value was 90.

**Q.** And the “Oat, Wild plant response rating (0 to 100 scale)” value (“Oat, Wild plant response rating” for short) ([6]; 125 g ai/ha)?
**A.** The value was 90.

**Q.** And the “Oat, Wild plant response rating” value ([6]; 500 g ai/ha)?
**A.** The value was 90.

**Q.** What about the “Amaranth, Palmer plant response rating (0 to 100 scale)” value ([7]; 125 g ai/ha) of the same molecule?
**A.** The value was 100.

**Q.** And the “Amaranth, Palmer plant response rating (0 to 100 scale)” value ([7]; 500 g ai/ha)?
**A.** Its value is 100.

**Q.** And the “Ryegrass, Italian plant response rating (0 to 100 scale)” value (“Ryegrass, Italian plant response rating” below) ([8]; 125 g ai/ha)?
**A.** Its value is 100.

**Q.** What about the “Ryegrass, Italian plant response rating” value ([8]; 500 g ai/ha) of the same molecule?
**A.** The value was 100.

**Q.** What about the “Soybean plant response rating (0 to 100 scale)” value (shortened to “Soybean plant response rating”) (soybean (Glycine max) [9]; 125 g ai/ha) of the same molecule?
**A.** The value was 80.

**Q.** What about the “Soybean plant response rating” value (soybean (Glycine max) [9]; 500 g ai/ha) of the same molecule?
**A.** The value was 90.

**Q.** What about the “Wheat plant response rating (0 to 100 scale)” value (shortened to “Wheat plant response rating”) ([10]; 125 g ai/ha) of the same molecule?
**A.** The value was 90.

**Q.** And the “Wheat plant response rating” value ([10]; 500 g ai/ha)?
**A.** Its value is 100.

**Q.** What about the “Barnyardgrass plant response rating” value ([11]; 125 g ai/ha) of the same molecule?
**A.** Its value is 100.

**Q.** And the “Barnyardgrass plant response rating” value ([11]; 500 g ai/ha)?
**A.** The value was 100.

**Q.** And the “Blackgrass plant response rating” value ([12]; 125 g ai/ha)?
**A.** The value was 90.

**Q.** What about the “Blackgrass plant response rating” value ([12]; 500 g ai/ha) of the same molecule?
**A.** Its value is 100.

**Q.** What about the “Corn plant response rating” value (corn (Zea mays) [13]; 125 g ai/ha) of the same molecule?
**A.** Its value is 100.

**Q.** And the “Corn plant response rating” value (corn (Zea mays) [13]; 500 g ai/ha)?
**A.** Its value is 100.

**Q.** And the “Galium plant response rating (0 to 100 scale)” value ([14]; 125 g ai/ha)?
**A.** Its value is 80.

**Q.** And the “Galium plant response rating (0 to 100 scale)” value ([14]; 500 g ai/ha)?
**A.** The value was 80.

**Q.** And the “Foxtail, Green plant response rating” value ([15]; 125 g ai/ha)?
**A.** The value was 90.

**Q.** What about the “Foxtail, Green plant response rating” value ([15]; 500 g ai/ha) of the same molecule?
**A.** Its value is 90.

**Q.** And the “Horseweed plant response rating (0 to 100 scale)” value ([16]; 125 g ai/ha)?
**A.** The value was 80.

**Q.** And the “Horseweed plant response rating (0 to 100 scale)” value ([16]; 500 g ai/ha)?
**A.** Its value is 90.

**Q.** What about the “Kochia plant response rating” value (kochia (Bassia scoparia) [17]; 125 g ai/ha) of the same molecule?
**A.** Its value is 70.

**Q.** What about the “Kochia plant response rating” value (kochia (Bassia scoparia) [17]; 500 g ai/ha) of the same molecule?
**A.** Its value is 70.

**Q.** And the “Oat, Wild plant response rating” value ([18]; 125 g ai/ha)?
**A.** Its value is 100.

**Q.** What about the “Oat, Wild plant response rating” value ([18]; 500 g ai/ha) of the same molecule?
**A.** The value was 100.

**Q.** And the “Amaranth, Palmer / Pigweed, Palmer plant response rating (0 to 100 scale)” value ([19]; 125 g ai/ha)?
**A.** The value was 80.

**Q.** And the “Amaranth, Palmer / Pigweed, Palmer plant response rating (0 to 100 scale)” value ([19]; 500 g ai/ha)?
**A.** Its value is 100.

**Q.** And the “Ragweed plant response rating (0 to 100 scale)” value ([20]; 125 g ai/ha)?
**A.** The value was 70.

**Q.** What about the “Ragweed plant response rating (0 to 100 scale)” value ([20]; 500 g ai/ha) of the same molecule?
**A.** The value was 80.

**Q.** And the “Ryegrass, Italian plant response rating” value ([21]; 125 g ai/ha)?
**A.** Its value is 90.

**Q.** What about the “Ryegrass, Italian plant response rating” value ([21]; 500 g ai/ha) of the same molecule?
**A.** Its value is 90.

**Q.** What about the “Soybean plant response rating” value (soybean (Glycine max) [22]; 125 g ai/ha) of the same molecule?
**A.** Its value is 70.

**Q.** What about the “Soybean plant response rating” value (soybean (Glycine max) [22]; 500 g ai/ha) of the same molecule?
**A.** Its value is 90.

**Q.** What about the “Wheat plant response rating” value ([23]; 125 g ai/ha) of the same molecule?
**A.** The value was 70.

**Q.** What about the “Wheat plant response rating” value ([23]; 500 g ai/ha) of the same molecule?
**A.** The value was 80.

**Q.** What about the “Plant response rating, Barnyardgrass (0 to 100 scale, 0 is no effect and 100 is complete control)” value [24] of the same molecule?
**A.** Its value is 95.

**Q.** And the “Plant response rating, Ducksalad (0 to 100 scale, 0 is no effect and 100 is complete control)” value [25]?
**A.** Its value is 90.

**Q.** What about the “Plant response rating, Rice (0 to 100 scale, 0 is no effect and 100 is complete control)” value (rice (Oryza sativa)) of the same molecule?
**A.** The value was 50.

**Q.** And the “Plant response rating, Sedge, Umbrella (0 to 100 scale, 0 is no effect and 100 is complete control)” value [26]?
**A.** The value was 90.
